Activity calls are given as the source filed them.
Tests used:
[1] = microbe, parasite or virus in culture; type: functional; details: Mycobacterium tuberculosis
[2] = Cytotoxicity screening for potential Inhibitors of Bacterial Capsule Biogenesis. [Related pubchem assays (depositor defined):AID488970]; type: functional
[3] = target: Heat shock protein HSP 90-alpha (Homo sapiens, UniProt P07900); type: functional, organism-based
Protein Rev = Protein Rev (Human immunodeficiency virus type 1 group M subtype B (isolate HXB2)(HIV-1), UniProt P04618); experiment: blockers of HIV Rev/RRE RNA complex – biochemical, fluorescence polarization, HIV-1, dose response (AID 434976); design: species or system Human immunodeficiency virus 1
[4] = target: Female germline-specific tumor suppressor gld-1 (Caenorhabditis elegans, UniProt Q17339); experiment: blockers of GLD-1/TGE RNA complex formation – biochemical, fluorescence polarization, C. elegans, dose response (AID 2802);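 further: fluorescence polarization of labeled TGE RNA bound by purified gld-1 protein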
[5] = viability of PTEN-deleted HCT116 cells – cell-based, HCT116 PTEN knockout, dose response (AID 1047); type: functional;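 further: HCT116 colon tumor cells with PTEN knocked out; cells exposed to compound for 60 hours before readout; potency for loss of cell viability measured by luminescence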
[6] = viability of HCT116 lacking mutant beta-catenin – cell-based, human colon tumor, dose response (AID 1045); type: functional;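 further: HCT116 colon tumor cells with beta catenin knocked out; cells exposed to compound for 60 hours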
Bcl-2-related protein A1 = target: T1, Bcl-2-related protein A1 (Mus musculus, UniProt Q07440); type: functional;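 further: confirmatory dose–response counterscreen on Bfl-1, used to check hits from a UBC13 polyubiquitin inhibitor campaign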
T1 sequence (Q07440 whole entry): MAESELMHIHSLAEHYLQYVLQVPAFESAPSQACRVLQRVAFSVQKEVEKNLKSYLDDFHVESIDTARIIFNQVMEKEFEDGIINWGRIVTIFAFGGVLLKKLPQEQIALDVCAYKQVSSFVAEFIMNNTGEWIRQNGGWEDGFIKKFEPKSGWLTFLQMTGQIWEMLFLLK

[7] = target: T2, Ubiquitin-conjugating enzyme E2 N (Homo sapiens, UniProt P61088); type: functional
T2 sequence (P61088 whole entry): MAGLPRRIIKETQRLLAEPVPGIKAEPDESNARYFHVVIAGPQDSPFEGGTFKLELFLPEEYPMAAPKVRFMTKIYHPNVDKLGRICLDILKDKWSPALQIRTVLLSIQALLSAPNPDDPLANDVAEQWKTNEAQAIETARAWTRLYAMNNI

[8] = target: T2, Ubiquitin-conjugating enzyme E2 N; type: functional; remark: listed apart in the source
Vero = experiment: cells; type: functional; details: Chlorocebus sabaeus
Coagulation factor XII = target: T3, Coagulation factor XII (Homo sapiens, UniProt P00748); experiment: activated coagulation factor XII inhibitor potency, concentration-effect curve, cell-free (AID 716); type: functional
T3 sequence (P00748 whole entry): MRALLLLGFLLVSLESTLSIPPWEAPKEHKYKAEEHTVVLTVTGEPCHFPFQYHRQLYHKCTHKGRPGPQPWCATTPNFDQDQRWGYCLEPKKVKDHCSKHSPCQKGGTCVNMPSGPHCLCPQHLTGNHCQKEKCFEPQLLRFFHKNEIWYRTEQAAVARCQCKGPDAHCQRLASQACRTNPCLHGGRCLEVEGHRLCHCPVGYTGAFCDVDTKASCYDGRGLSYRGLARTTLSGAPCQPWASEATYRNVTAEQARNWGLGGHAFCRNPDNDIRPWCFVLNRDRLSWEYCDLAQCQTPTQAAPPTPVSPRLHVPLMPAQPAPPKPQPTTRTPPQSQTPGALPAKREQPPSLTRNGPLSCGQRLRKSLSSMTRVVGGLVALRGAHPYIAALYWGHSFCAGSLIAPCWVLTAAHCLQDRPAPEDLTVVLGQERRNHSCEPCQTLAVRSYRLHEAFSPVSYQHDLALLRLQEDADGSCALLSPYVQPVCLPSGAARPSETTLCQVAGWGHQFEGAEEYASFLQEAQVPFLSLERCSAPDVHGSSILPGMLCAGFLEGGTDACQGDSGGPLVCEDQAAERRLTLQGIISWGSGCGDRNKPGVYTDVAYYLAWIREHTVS

[9] = target: Signal transducer and activator of transcription 3 (Homo sapiens, UniProt P40763); experiment: STAT3 activation with BCL3 mRNA and toxicity – cell-based, […], BCL3 qPCR, cytotoxicity, late-stage follow-up, panel member STAT3 Activation (AID 2049)
Hexokinase = Hexokinase (Trypanosoma brucei, UniProt Q38C41); experiment: Confirmation assay for inhibitors of Trypanosoma brucei hexokinase 1-Analogue-first series. [Related pubchem assays (depositor defined):AID1430, AID1632, AID2516, AID2560, AID2579, AID2600, AID449725, AID492951]; type: functional
[10] = target: Sphingosine 1-phosphate receptor 2 (Homo sapiens, UniProt O95136); experiment: Dose Response Cell Based Assay for Antagonists of the S1P2 Receptor. [Related pubchem assays: 856, 736 ]; type: functional
BJ [11] = experiment: BJ-TERT fibroblast viability loss – cell-based, RAS-independent, luminescence, dose response (AID 1933); type: functional; details: Homo sapiens
BJ [12] = experiment: cells; type: functional, cell-based; details: Homo sapiens
[13] = target: T4, Calpain-2 catalytic subunit (Sus scrofa, UniProt P43367); experiment: m-calpain protease blockers, concentration series – biochemical, fluorogenic peptide substrate, dose response (AID 1420); type: functional
T4 sequence (P43367 whole entry): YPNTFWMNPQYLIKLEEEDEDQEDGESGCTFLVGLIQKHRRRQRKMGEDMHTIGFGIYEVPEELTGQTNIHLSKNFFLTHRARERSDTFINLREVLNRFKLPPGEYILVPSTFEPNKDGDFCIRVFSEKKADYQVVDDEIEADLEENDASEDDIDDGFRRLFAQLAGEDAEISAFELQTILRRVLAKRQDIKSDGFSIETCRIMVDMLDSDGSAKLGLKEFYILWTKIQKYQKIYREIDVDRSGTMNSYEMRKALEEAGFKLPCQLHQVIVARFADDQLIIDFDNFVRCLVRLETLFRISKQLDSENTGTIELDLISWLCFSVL

BJ [14] = experiment: BJ-TERT-LT-ST fibroblast viability loss – cell-based, RAS-independent, luminescence, dose response (AID 1935); type: functional; details: Homo sapiens;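 further: BJ fibroblasts immortalized with TERT plus LT and ST oncogenes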
[15] = DRD fibroblast viability loss – cell-based, non-viral oncogenic, luminescence, dose response (AID 1934); type: functional; details: Homo sapiens
[16] = target: NACHT, LRR and PYD domains-containing protein 3 (Homo sapiens, UniProt Q96P20); experiment: NALP3 inhibitors in yeast, dose response, luminescent (AID 488799); type: functional
[17] = HEK-293T viability loss after treatment – luminescence, T-cell screen hits, cytotoxicity control for TCR NF-kB inhibitor project, dose response (AID 489026); type: functional, cell-based;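 further: cells exposed to compound about 14 hours before the viability readout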

Hexokinase, sequence (Q38C41 whole entry): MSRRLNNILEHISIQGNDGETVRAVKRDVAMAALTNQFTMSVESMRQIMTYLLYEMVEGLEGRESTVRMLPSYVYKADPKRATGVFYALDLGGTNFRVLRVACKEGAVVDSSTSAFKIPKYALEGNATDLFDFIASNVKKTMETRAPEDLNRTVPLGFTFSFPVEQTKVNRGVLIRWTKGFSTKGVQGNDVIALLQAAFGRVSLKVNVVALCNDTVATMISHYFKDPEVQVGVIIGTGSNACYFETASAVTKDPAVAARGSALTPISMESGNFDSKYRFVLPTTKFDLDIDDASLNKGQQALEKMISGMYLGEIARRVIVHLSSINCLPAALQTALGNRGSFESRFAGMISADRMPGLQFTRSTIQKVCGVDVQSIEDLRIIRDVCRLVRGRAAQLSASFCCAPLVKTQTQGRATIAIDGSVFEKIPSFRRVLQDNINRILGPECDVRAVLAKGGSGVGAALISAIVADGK
Protein Rev, sequence (P04618 whole entry): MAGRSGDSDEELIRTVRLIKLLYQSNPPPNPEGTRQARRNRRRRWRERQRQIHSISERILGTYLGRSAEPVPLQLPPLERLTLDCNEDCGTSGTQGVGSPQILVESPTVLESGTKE
Signal transducer and activator of transcription 3, sequence (P40763 whole entry): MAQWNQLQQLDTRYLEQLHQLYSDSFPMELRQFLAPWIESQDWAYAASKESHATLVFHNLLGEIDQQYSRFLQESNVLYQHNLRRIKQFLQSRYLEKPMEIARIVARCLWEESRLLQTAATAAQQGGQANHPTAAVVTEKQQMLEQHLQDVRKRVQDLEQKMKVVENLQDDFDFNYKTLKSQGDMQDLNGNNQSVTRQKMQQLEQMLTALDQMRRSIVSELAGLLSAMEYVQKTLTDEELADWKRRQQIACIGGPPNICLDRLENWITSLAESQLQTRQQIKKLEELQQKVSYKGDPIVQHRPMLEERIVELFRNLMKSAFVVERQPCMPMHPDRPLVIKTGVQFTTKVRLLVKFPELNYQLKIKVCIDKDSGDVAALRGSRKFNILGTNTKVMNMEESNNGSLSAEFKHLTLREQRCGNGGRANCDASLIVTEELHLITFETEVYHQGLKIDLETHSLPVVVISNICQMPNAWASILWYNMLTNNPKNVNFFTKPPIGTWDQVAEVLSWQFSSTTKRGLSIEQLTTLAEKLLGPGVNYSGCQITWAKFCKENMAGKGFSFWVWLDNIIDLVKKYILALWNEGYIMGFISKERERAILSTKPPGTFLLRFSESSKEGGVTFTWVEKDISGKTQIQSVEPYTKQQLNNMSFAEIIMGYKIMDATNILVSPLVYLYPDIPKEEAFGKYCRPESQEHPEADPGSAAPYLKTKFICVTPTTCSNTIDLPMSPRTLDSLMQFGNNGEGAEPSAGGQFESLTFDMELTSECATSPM
Sphingosine 1-phosphate receptor 2, sequence (O95136 whole entry): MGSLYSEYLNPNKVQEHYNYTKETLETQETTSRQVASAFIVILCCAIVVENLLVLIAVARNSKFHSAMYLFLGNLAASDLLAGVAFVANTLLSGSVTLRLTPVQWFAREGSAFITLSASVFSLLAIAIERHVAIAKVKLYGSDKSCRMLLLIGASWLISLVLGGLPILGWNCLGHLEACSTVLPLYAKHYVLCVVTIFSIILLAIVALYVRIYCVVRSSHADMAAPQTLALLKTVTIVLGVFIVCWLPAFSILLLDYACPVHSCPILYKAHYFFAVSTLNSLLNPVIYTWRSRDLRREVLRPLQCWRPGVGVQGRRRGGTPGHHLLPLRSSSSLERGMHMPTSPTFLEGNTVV
Female germline-specific tumor suppressor gld-1, sequence (Q17339 whole entry): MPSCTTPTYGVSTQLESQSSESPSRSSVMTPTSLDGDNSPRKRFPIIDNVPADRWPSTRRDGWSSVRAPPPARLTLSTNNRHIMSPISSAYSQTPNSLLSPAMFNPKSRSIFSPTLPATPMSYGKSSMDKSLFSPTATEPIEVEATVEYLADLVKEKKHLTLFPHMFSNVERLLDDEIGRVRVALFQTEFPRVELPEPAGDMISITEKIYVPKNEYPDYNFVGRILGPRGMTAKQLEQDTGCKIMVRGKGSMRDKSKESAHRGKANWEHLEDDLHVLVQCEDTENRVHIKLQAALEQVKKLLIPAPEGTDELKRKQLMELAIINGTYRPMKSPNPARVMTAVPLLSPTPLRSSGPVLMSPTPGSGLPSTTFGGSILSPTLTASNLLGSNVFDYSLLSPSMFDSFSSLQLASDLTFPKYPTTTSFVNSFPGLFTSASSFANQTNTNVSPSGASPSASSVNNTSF
NACHT, LRR and PYD domains-containing protein 3, sequence (Q96P20 whole entry, the tested form may be a part): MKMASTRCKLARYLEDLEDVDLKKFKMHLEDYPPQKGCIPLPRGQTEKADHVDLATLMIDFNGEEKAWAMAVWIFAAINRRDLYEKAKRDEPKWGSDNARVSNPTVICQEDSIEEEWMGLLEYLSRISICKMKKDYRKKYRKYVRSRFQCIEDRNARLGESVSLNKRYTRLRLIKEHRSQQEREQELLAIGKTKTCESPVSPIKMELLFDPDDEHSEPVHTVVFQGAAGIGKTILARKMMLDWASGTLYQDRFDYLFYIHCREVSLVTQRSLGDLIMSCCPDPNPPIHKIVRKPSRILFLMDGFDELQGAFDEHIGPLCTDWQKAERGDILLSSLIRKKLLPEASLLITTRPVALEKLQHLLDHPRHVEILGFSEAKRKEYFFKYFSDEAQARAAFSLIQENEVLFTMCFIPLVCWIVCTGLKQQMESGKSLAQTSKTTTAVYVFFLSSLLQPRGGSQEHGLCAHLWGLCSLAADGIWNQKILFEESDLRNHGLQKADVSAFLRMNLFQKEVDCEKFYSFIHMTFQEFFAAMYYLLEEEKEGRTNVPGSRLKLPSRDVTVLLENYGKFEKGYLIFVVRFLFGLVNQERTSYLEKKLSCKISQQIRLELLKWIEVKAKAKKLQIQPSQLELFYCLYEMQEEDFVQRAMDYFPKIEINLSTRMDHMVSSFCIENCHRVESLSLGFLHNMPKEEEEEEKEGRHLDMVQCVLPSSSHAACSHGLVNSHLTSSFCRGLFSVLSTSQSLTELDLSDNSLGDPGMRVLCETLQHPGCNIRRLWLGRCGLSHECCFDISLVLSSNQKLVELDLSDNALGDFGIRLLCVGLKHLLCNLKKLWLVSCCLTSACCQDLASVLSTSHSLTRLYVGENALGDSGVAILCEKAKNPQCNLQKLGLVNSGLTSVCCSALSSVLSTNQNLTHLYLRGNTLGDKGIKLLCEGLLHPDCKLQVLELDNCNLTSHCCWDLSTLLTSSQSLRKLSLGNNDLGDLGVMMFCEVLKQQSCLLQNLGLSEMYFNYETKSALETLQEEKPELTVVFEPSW

Structure (SMILES): O=C1C2(Cl)C3(Cl)C4(Cl)C(Cl)(Cl)C5(Cl)C3(Cl)C1(Cl)C5(Cl)C24Cl (centres undefined) [KEPONE]
- CC50 [1]: 22.6 µM (active)
- CC50 [2]: 8.69 µM (active)
- AC50 [3]: 2.68 µM (active)

Structure (SMILES): CN1CC2=Cc3ccccc3OC23Oc2ccccc2C=C3C1
- IC50 (Protein Rev): > 75.4 µM (not active)
- IC50 [4]: > 59.6 µM (inactive)
- EC50 [5]: 25 µM (active)
- EC50 [6]: 23 µM (active)
- IC50 (Bcl-2-related protein A1): > 20 µM (inactive)
- IC50 [7]: 2.55 µM (active)
- IC50 [8]: 3.5 µM (active)
- CC50 (Vero): 18.9 µM (active)

Structure (SMILES): Cc1ccc(NC(=O)C[S+]([O-])CC(=O)NCC2CCCO2)cc1 (centres undefined)
- IC50 (Coagulation factor XII): > 50 µM (inactive)

Structure (SMILES): COc1ccc(Cl)cc1NC(=O)c1cc(C2CC2)on1
- EC50 [9]: 0.00455 µM (active)

Structure (SMILES): COc1ccc(C(=O)NC(CC(=O)O)c2cccc(Cl)c2)cc1 (centres undefined)
- IC50 (Hexokinase): > 25 µM (inactive)

Structure (SMILES): CCCCCCCCCn1c2c(c(=N)c3c1CCC3)CCC2
- IC50 [10]: 9.03 µM (active)
- EC50 (BJ [11]): 1.15 µM (active)
- EC50 (BJ [12]): 2.07 µM (active)
- EC50 [5]: 0.728 µM (active)
- IC50 [13]: 7.18 µM (active)
- EC50 [6]: 0.561 µM (active)
- EC50 (BJ [14]): 8.37 µM (inconclusive)
- EC50 [15]: 3.16 µM (active)
- IC50 [16]: 9.02 µM (active)
- IC50 [17]: 47.8 µM (inactive)

Reference: ChEMBL document CHEMBL1201862, “PubChem BioAssay data set” (2004)
